Measured values published in patent US8192962B2, “Processes for detecting toxic substances” (Daikin Industries, Ltd., priority 2001, dated 2012).

Test system: Unknown protein yeast genes
Assay: DNA chip mRNA expression in yeast, unknown protein yeast genes (Table 1)
Assay type: cell-based, Saccharomyces cerevisiae S288C
Protocol: Yeast (Saccharomyces cerevisiae S288C (α SUC2mal mel gap2 CUP1)) were incubated at 25° C. on YPD medium (yeast extract 1%, polypepton 2%, glucose 2%). One of toxic chemical substances was added to the cells at logarithmic growth phase, and the cells were further incubated for two hours. Cells were cultured without any chemical substance in the same condition, and were used as control. Concentrations of the chemical substances were defined to inhibit the growth of the yeast but not lead to death.
After completion of the incubation, the culture was centrifuged to collect the cells. To the cells, sodium acetate buffer (50 mM sodium acetate, 10 mM EDTA, 1% SDS) was added, and the mixture was shaken at 65° C. for five minutes, followed by returning to room temperature, and obtaining the supernatant, of which the procedures were repeated two times. To the supernatant, ½ amount of a solution of phenol/chloroform was added, and the mixture was centrifuged to give a supernatant, which was added with an equal amount of chloroform, and the mixture was centrifuged to give a supernatant. To the supernatant, an equal amount of isopropanol containing 0.3 M sodium acetate was added, and the mixture was allowed to stand at room temperature for 30 minutes, after which the mixture was centrifuged to give a sediment of the whole RNAs. Seventy % ethanol was added to the sediment, and the mixture was again centrifuged to give a sediment, which was then dried and dissolved in water. mRNA was isolated from the whole RNAs as followings. In view of the fact that a poly A chain is attached to the 3′ terminus of mRNA, a polynucleotide having a poly T structure which was immobilized on the surface of latex beads was used to trap the mRNA, and then the mRNA was washed and eluted with spine column (Oligotex-dT30<Super>mRNA Purification Kit, Takara). Reverse transcription of the mRNA was conducted with a reverse transcriptase (Super Script II Reverse Transcriptase; catalogue No. 18064-014, GibcoBRL) using fluorescence-labeled nucleotides to give cDNAs that were introduced with Cy3-dUTP or Cy5-dUTP during the reverse transcription.
The labeled cDNAs were dissolved in TE buffer (10mM Tris-HCl/1 mM EDTA, pH8.0), and the solution was dropped on the DNA chip containing the whole genes of yeast (DNA Chip Research Inc. Japan) so that the cDNAs were hybridized on the DNA chip at 65° C. for over 12 hours. The fluoresces intensity of the DNA chip was read with a scanner, and the ratio relative to the fluorescence intensity resulting from the absence of chemical substance was estimated as the following, which is shown in Tables 1 to 9: […]

**Q.** How did the “The level of expressed mRNA in the presence of chemical substance/The level of expressed mRNA in the absence of chemical substance” value (yeast gene YKL195W, incubated two hours with chemical substance) turn out when `[Cl][Cd][Cl]` [(2), CdCl2] was run?
**A.** Its value is 0.5.

**Q.** What about the “The level of expressed mRNA in the presence of chemical substance/The level of expressed mRNA in the absence of chemical substance” value (yeast gene YKR091W, incubated two hours with chemical substance) of the same compound?
**A.** Its value is 2.3.

**Q.** And the “The level of expressed mRNA in the presence of chemical substance/The level of expressed mRNA in the absence of chemical substance” value (yeast gene YLR054C, incubated two hours with chemical substance)?
**A.** The value was 1.5.

**Q.** And the “The level of expressed mRNA in the presence of chemical substance/The level of expressed mRNA in the absence of chemical substance” value (yeast gene YLR149C, incubated two hours with chemical substance)?
**A.** Its value is 1.9.

**Q.** And the “The level of expressed mRNA in the presence of chemical substance/The level of expressed mRNA in the absence of chemical substance” value (yeast gene YLR152C, incubated two hours with chemical substance)?
**A.** The value was 1.3.

**Q.** And the “The level of expressed mRNA in the presence of chemical substance/The level of expressed mRNA in the absence of chemical substance” value (yeast gene YLR194C, incubated two hours with chemical substance)?
**A.** Its value is 2.2.

**Q.** What about the “The level of expressed mRNA in the presence of chemical substance/The level of expressed mRNA in the absence of chemical substance” value (yeast gene YLR324W, incubated two hours with chemical substance) of the same compound?
**A.** The value was 1.2.

**Q.** And the “The level of expressed mRNA in the presence of chemical substance/The level of expressed mRNA in the absence of chemical substance” value (yeast gene YLR350W, incubated two hours with chemical substance)?
**A.** The value was 1.9.

**Q.** And the “The level of expressed mRNA in the presence of chemical substance/The level of expressed mRNA in the absence of chemical substance” value (yeast gene YLR387C, incubated two hours with chemical substance)?
**A.** Its value is 1.6.

**Q.** What about the “The level of expressed mRNA in the presence of chemical substance/The level of expressed mRNA in the absence of chemical substance” value (yeast gene YLR460C) of the same compound?
**A.** The value was 2.1.

**Q.** What about the “The level of expressed mRNA in the presence of chemical substance/The level of expressed mRNA in the absence of chemical substance” value (yeast gene YML117W, incubated two hours with chemical substance) of the same compound?
**A.** Its value is 2.2.

**Q.** And the “The level of expressed mRNA in the presence of chemical substance/The level of expressed mRNA in the absence of chemical substance” value (yeast gene YMR009W, incubated two hours with chemical substance)?
**A.** The value was 1.9.

**Q.** And the “The level of expressed mRNA in the presence of chemical substance/The level of expressed mRNA in the absence of chemical substance” value (yeast gene YMR067C, incubated two hours with chemical substance)?
**A.** Its value is 0.9.

**Q.** And the “The level of expressed mRNA in the presence of chemical substance/The level of expressed mRNA in the absence of chemical substance” value (yeast gene YMR090W)?
**A.** Its value is 9.5.

**Q.** And the “The level of expressed mRNA in the presence of chemical substance/The level of expressed mRNA in the absence of chemical substance” value (yeast gene YMR095C, incubated two hours with chemical substance)?
**A.** The value was 2.0.

**Q.** What about the “The level of expressed mRNA in the presence of chemical substance/The level of expressed mRNA in the absence of chemical substance” value (yeast gene YMR097C, incubated two hours with chemical substance) of the same compound?
**A.** The value was 1.0.

**Q.** What about the “The level of expressed mRNA in the presence of chemical substance/The level of expressed mRNA in the absence of chemical substance” value (yeast gene YMR102C, incubated two hours with chemical substance) of the same compound?
**A.** Its value is 2.9.

**Q.** And the “The level of expressed mRNA in the presence of chemical substance/The level of expressed mRNA in the absence of chemical substance” value (yeast gene YMR107W, incubated two hours with chemical substance)?
**A.** Its value is 3.9.

**Q.** What about the “The level of expressed mRNA in the presence of chemical substance/The level of expressed mRNA in the absence of chemical substance” value (yeast gene YMR180C, incubated two hours with chemical substance) of the same compound?
**A.** The value was 0.9.

**Q.** What about the “The level of expressed mRNA in the presence of chemical substance/The level of expressed mRNA in the absence of chemical substance” value (yeast gene YMR184W, incubated two hours with chemical substance) of the same compound?
**A.** Its value is 5.4.

**Q.** And the “The level of expressed mRNA in the presence of chemical substance/The level of expressed mRNA in the absence of chemical substance” value (yeast gene YMR191W, incubated two hours with chemical substance)?
**A.** The value was 2.4.

**Q.** And the “The level of expressed mRNA in the presence of chemical substance/The level of expressed mRNA in the absence of chemical substance” value (yeast gene YMR295C, incubated two hours with chemical substance)?
**A.** Its value is 1.0.

**Q.** What about the “The level of expressed mRNA in the presence of chemical substance/The level of expressed mRNA in the absence of chemical substance” value (yeast gene YMR316W, incubated two hours with chemical substance) of the same compound?
**A.** Its value is 2.9.

**Q.** What about the “The level of expressed mRNA in the presence of chemical substance/The level of expressed mRNA in the absence of chemical substance” value (yeast gene YNL044W, incubated two hours with chemical substance) of the same compound?
**A.** The value was 0.9.

**Q.** And the “The level of expressed mRNA in the presence of chemical substance/The level of expressed mRNA in the absence of chemical substance” value (yeast gene YNL074C, incubated two hours with chemical substance)?
**A.** Its value is 1.3.

**Q.** And the “The level of expressed mRNA in the presence of chemical substance/The level of expressed mRNA in the absence of chemical substance” value (yeast gene YNL092W, incubated two hours with chemical substance)?
**A.** The value was 1.4.

**Q.** And the “The level of expressed mRNA in the presence of chemical substance/The level of expressed mRNA in the absence of chemical substance” value (yeast gene YNL115C, incubated two hours with chemical substance)?
**A.** The value was 1.8.

**Q.** What about the “The level of expressed mRNA in the presence of chemical substance/The level of expressed mRNA in the absence of chemical substance” value (yeast gene YNL156C, incubated two hours with chemical substance) of the same compound?
**A.** Its value is 1.2.

**Q.** And the “The level of expressed mRNA in the presence of chemical substance/The level of expressed mRNA in the absence of chemical substance” value (yeast gene YNL234W, incubated two hours with chemical substance)?
**A.** Its value is 1.1.

**Q.** What about the “The level of expressed mRNA in the presence of chemical substance/The level of expressed mRNA in the absence of chemical substance” value (yeast gene YNL281W, incubated two hours with chemical substance) of the same compound?
**A.** Its value is 1.3.

**Q.** And the “The level of expressed mRNA in the presence of chemical substance/The level of expressed mRNA in the absence of chemical substance” value (yeast gene YNL305C, incubated two hours with chemical substance)?
**A.** Its value is 2.2.

**Q.** What about the “The level of expressed mRNA in the presence of chemical substance/The level of expressed mRNA in the absence of chemical substance” value (yeast gene YNR068C, incubated two hours with chemical substance) of the same compound?
**A.** Its value is 1.5.

**Q.** And the “The level of expressed mRNA in the presence of chemical substance/The level of expressed mRNA in the absence of chemical substance” value (yeast gene YOL032W, incubated two hours with chemical substance)?
**A.** Its value is 0.8.

**Q.** And the “The level of expressed mRNA in the presence of chemical substance/The level of expressed mRNA in the absence of chemical substance” value (yeast gene YOL036W, incubated two hours with chemical substance)?
**A.** The value was 0.9.

**Q.** What about the “The level of expressed mRNA in the presence of chemical substance/The level of expressed mRNA in the absence of chemical substance” value (yeast gene YOL047C, incubated two hours with chemical substance) of the same compound?
**A.** The value was 1.1.

**Q.** And the “The level of expressed mRNA in the presence of chemical substance/The level of expressed mRNA in the absence of chemical substance” value (yeast gene YOL071W, incubated two hours with chemical substance)?
**A.** Its value is 2.0.

**Q.** And the “The level of expressed mRNA in the presence of chemical substance/The level of expressed mRNA in the absence of chemical substance” value (yeast gene YOL082W, incubated two hours with chemical substance)?
**A.** Its value is 1.6.

**Q.** And the “The level of expressed mRNA in the presence of chemical substance/The level of expressed mRNA in the absence of chemical substance” value (yeast gene YOL083W, incubated two hours with chemical substance)?
**A.** Its value is 2.3.

**Q.** And the “The level of expressed mRNA in the presence of chemical substance/The level of expressed mRNA in the absence of chemical substance” value (yeast gene YOL117W, incubated two hours with chemical substance)?
**A.** Its value is 1.1.

**Q.** And the “The level of expressed mRNA in the presence of chemical substance/The level of expressed mRNA in the absence of chemical substance” value (yeast gene YOL131W, incubated two hours with chemical substance)?
**A.** Its value is 1.5.

**Q.** What about the “The level of expressed mRNA in the presence of chemical substance/The level of expressed mRNA in the absence of chemical substance” value (yeast gene YOL150C) of the same compound?
**A.** Its value is 3.7.

**Q.** And the “The level of expressed mRNA in the presence of chemical substance/The level of expressed mRNA in the absence of chemical substance” value (yeast gene YOL162W, incubated two hours with chemical substance)?
**A.** The value was 6.9.

**Q.** And the “The level of expressed mRNA in the presence of chemical substance/The level of expressed mRNA in the absence of chemical substance” value (yeast gene YOR019W, incubated two hours with chemical substance)?
**A.** The value was 1.2.

**Q.** What about the “The level of expressed mRNA in the presence of chemical substance/The level of expressed mRNA in the absence of chemical substance” value (yeast gene YOR197W, incubated two hours with chemical substance) of the same compound?
**A.** The value was 1.0.

**Q.** And the “The level of expressed mRNA in the presence of chemical substance/The level of expressed mRNA in the absence of chemical substance” value (yeast gene YPL087W, incubated two hours with chemical substance)?
**A.** The value was 5.1.

**Q.** And the “The level of expressed mRNA in the presence of chemical substance/The level of expressed mRNA in the absence of chemical substance” value (yeast gene YPL196W, incubated two hours with chemical substance)?
**A.** Its value is 1.6.

**Q.** And the “The level of expressed mRNA in the presence of chemical substance/The level of expressed mRNA in the absence of chemical substance” value (yeast gene YPL206C, incubated two hours with chemical substance)?
**A.** Its value is 2.9.

**Q.** What about the “The level of expressed mRNA in the presence of chemical substance/The level of expressed mRNA in the absence of chemical substance” value (yeast gene YPL222W, incubated two hours with chemical substance) of the same compound?
**A.** The value was 3.5.

**Q.** And the “The level of expressed mRNA in the presence of chemical substance/The level of expressed mRNA in the absence of chemical substance” value (yeast gene YPR023C, incubated two hours with chemical substance)?
**A.** Its value is 1.4.

**Q.** What about the “The level of expressed mRNA in the presence of chemical substance/The level of expressed mRNA in the absence of chemical substance” value (yeast gene YPR151C, incubated two hours with chemical substance) of the same compound?
**A.** The value was 2.0.
